Our source for the Selectivity ratio and RBA values is ChEMBL document CHEMBL1949624, “Synthesis of a spin-labeled anti-estrogen as a dynamic motion probe for the estrogen receptor ligand binding domain” (Bioorg Med Chem Lett, 2012).

A short description of experiment [1]: Selectivity ratio of relative binding affinity for ERbeta receptor LBD to relative binding affinity for ERalpha receptor LBD.
Experiment [2] addresses Estrogen receptor beta (Homo sapiens) (UniProt Q92731). Put plainly: Relative binding affinity to ERbeta LBD by competitive binding assay.
For experiment [3], the target named is T1, Estrogen receptor (Homo sapiens) (UniProt P03372).
T1 sequence (whole entry): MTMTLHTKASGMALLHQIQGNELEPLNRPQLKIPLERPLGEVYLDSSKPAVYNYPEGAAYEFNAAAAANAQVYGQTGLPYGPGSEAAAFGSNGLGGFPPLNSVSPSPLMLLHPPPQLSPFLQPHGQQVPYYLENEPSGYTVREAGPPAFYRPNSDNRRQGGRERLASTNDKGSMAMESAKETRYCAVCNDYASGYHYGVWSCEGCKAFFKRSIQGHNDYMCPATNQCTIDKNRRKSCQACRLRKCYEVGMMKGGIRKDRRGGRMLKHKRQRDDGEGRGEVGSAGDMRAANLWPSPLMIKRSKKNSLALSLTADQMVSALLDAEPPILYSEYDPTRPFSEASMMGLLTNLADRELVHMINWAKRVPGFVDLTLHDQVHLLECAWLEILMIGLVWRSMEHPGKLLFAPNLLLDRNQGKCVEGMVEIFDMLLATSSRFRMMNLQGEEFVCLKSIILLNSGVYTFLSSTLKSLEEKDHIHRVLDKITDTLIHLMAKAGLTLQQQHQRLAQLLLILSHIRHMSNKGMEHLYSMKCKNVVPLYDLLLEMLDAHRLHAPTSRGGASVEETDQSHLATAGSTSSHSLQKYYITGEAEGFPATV
Put plainly: Relative binding affinity to ERalpha LBD by competitive binding assay.

Estrogen receptor beta (Homo sapiens), sequence (Q92731 whole entry, the tested form may be a part): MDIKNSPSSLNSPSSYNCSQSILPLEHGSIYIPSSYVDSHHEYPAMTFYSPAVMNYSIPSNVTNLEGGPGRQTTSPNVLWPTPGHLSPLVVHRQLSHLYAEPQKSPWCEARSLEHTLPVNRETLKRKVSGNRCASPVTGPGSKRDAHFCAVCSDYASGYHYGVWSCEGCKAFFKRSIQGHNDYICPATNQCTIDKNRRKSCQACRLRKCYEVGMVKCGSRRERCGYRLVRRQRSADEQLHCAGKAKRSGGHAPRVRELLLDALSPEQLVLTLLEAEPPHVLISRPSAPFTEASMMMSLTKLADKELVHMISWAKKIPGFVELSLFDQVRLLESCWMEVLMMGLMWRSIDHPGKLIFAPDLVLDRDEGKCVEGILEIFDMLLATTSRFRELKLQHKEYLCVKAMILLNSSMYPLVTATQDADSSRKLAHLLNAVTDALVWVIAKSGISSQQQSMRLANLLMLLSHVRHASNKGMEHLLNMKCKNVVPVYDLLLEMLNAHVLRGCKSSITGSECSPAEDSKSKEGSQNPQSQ

Consider `C[C@]12C[C@H](c3ccc(OCCN=[N+]=[N-])cc3)[C@@H]3c4ccc(O)cc4CC[C@H]3[C@@H]1CC[C@@H]2O`, for which the Selectivity ratio in experiment [1] was found to be 0.86. Besides, the RBA in experiment [2] is 33.7%.

Turning to `CC1(C)CC(NCc2cn(CCOc3ccc([C@H]4C[C@]5(C)[C@@H](O)CC[C@H]5[C@@H]5CCc6cc(O)ccc6[C@H]54)cc3)nn2)CC(C)(C)N1[O]`, in experiment [1], the Selectivity ratio stood at 0.43. The values for the RBA in experiment [2] and in experiment [3] were 1.9% and 4.5%, respectively.
